Data as given in patent US20010016605A1, “Use of a phenylurea derivative for controlling crown and root rot in beet” (priority 2000, published 2001).

Test system: Rhizoctonia solani AG 2-2
Test: Inhibition of the growth of Rhizoctonia solani AG 2-2 on nutrient medium / protective
Type: cell-based
Settings: 0% = untreated control, 100% = complete inhibition of fungal growth, evaluation after 2 to 14 days
Description: Inhibition of the growth of Rhizoctonia solani AG 2-2 (anastomosis group 2-2)/protective
The substances are tested on suitable nutrient media for their activity against Rhizoctonia solani AG 2-2. To this end, the stated amount of active compound is in each case added to and intensively mixed with the stated amount of nutrient medium. The mixture in question is transferred into a culture vessel, inoculated with Rhizoctonia solani AG 2-2 and incubated at a suitable temperature. At certain intervals, the growth of the microorganism is assessed.
A nutrient medium of the following composition is used:
These components are dissolved in 1000 ml of distilled water and autoclaved at 121° C. for 30 minutes. The active compound at the stated concentration is then mixed with the nutrient medium. However, in all cases solvent and nutrient medium are present in the following weight ratio:
These mixtures are poured into Petri dishes having a diameter of 9 cm and a volume of 10 ml. Once the nutrient substrate has cooled and solidified, it is inoculated in the centre of the Petri dish with an inoculation piece having a diameter of 0.5 cm.
Evaluation is carried out after 2 to 14 days—depending on the rate of growth of the microorganism. The effect on the development of the culture is determined by comparing the individual test samples. 0% means an efficacy which corresponds to that of the untreated test variant. In contrast, an efficacy of 100% means complete inhibition of fungal growth.

[1] = active compound application rate 0.1 ppm in nutrient medium
[2] = active compound application rate 1 ppm in nutrient medium
[3] = active compound application rate 10 ppm in nutrient medium
[4] = active compound application rate 100 ppm in nutrient medium

Structure (SMILES)	Efficacy in % [1] [%]	Efficacy in % [2] [%]	Efficacy in % [3] [%]	Efficacy in % [4] [%]
O=C(Nc1ccccc1)N(Cc1ccc(Cl)cc1)C1CCCC1 [pencycuron, N-4-chloro-benzyl-N-cyclopentyl-N′-phenylurea]	70	98	100	100
Cc1cc(O)no1 [hymexazol]	7	5	8	35
CO/C=C(/C(=O)OC)c1ccccc1Oc1cc(Oc2ccccc2C#N)ncn1 [azoxystrobin]	45	48	59	64
